This note sets out measurements from PubChem BioAssay (NCI).

Common to all, as to experiment: inhibition of tumour cell growth, NCI panel, 48 h
Test [1] has as its system UACC-257 melanoma.
Test [2] concerns CCRF-CEM leukemia.
The subject of test [3] is 786-0 renal.
In test [4] the test system is HOP-62 NSCLC.
Test [5] deals with SNB-75 CNS.
The subject of test [6] is EKVX NSCLC.
Test [7] deals with SK-MEL-2 melanoma.
Test [8] deals with PC-3 prostate.
In test [9] the test system is HOP-92 NSCLC.
The subject of test [10] is OVCAR-4 ovarian.

SMILES strings stand for the structures.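 Five concentrations, 48 hours, 96-well plates. GI50: concentration for 50% inhibition of growth. TGI is the concentration that stops growth completely.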

As for `C=C1CC2(C[C@@H](c3ccccc3)O[C@@H](c3ccccc3)C2)OC1=O` (stereo partly specified), the TGI was found to be 10.8 µM in test [1]; 5.34 µM in test [2]; 5.63 µM in [3]; 28.1 µM in test [4]; 14.3 µM in test [5]; 25.7 µM in test [6]. The TGI was 11.3 µM in test [7], 14.5 µM in [8], 9.81 µM in [9] and 13.5 µM in [10].

`C=C(C)[C@@H]1CC[C@]2(C(=O)NCCNCCNCCN)CC[C@]3(C)[C@H](CC[C@@H]4[C@@]5(C)CC[C@H](O)C(C)(C)[C@@H]5CC[C@]43C)[C@@H]12`: the GI50 in test [1] is 15.1 µM; in [2] it was 4.55 µM; in test [3], 12.4 µM; in test [4], 16.5 µM; in test [5], 11.1 µM; in test [6], 10.5 µM. Also, the GI50 in [7] was 16.8 µM; in [8] it was 2.95 µM; in test [9] it was 4.61 µM; in test [10], 14.1 µM. In addition, the TGI in [1] was found to be 33.1 µM; in test [2], 78.2 µM; in test [3] it was 25.2 µM; in test [4], 33.5 µM; in [5], 27.6 µM; in test [6], 26.6 µM. In addition, the TGI in test [7] was determined as 37.3 µM; in test [8], 18.6 µM; in test [9] it was 19.7 µM; in test [10], 33 µM.

Regarding `CN(c1ccc(NC(=O)Nc2ccc(OC(F)(F)F)cc2)cc1)c1ccnc(Nc2cccc(S(N)(=O)=O)c2)n1`, the GI50 in test [1] is 3.77 µM; in [2], 0.412 µM; in test [3], 5.25 µM; in test [4] it was 3.71 µM; in test [5] it was 2.38 µM; in test [6], 5.33 µM. The GI50 in test [7] was 4.57 µM; in [8] it was 1.45 µM; in [9], 2.36 µM; in test [10], 3.06 µM. Further, the TGI was determined as 9.14 µM in test [1]; 25 µM in test [2]; 12 µM in test [3]; 8.1 µM in test [4]; 6.61 µM in test [5]; 12.4 µM in test [6]. For the same molecule, the TGI in test [7] turned out to be 9.7 µM; in test [8], 5.72 µM; in test [9], 6.95 µM; in [10] it was 8.03 µM.

With `O=C(CCCCCCSc1nc(-c2ccccc2)cc(-c2ccccc2)n1)NO`, the GI50 is 2.23 µM in test [1]; 0.535 µM in [2]; 1.91 µM in [3]; 1.93 µM in test [4]; 1.7 µM in [5]; 3.96 µM in test [6]. Besides, the GI50 is 3.94 µM in test [7], 2.24 µM in test [8], 1.75 µM in test [9] and 3.05 µM in [10]. Further, the TGI was determined as 11.1 µM in [1]; 5.36 µM in test [2]; 4.48 µM in test [3]; 8.06 µM in test [4]; 14 µM in [5]; 17.2 µM in [6]. In addition, the TGI in test [7] was 21 µM; in test [8], 13.4 µM; in test [9] it was 4.95 µM; in [10] it was 16.7 µM.

As to `CC(=O)NCCSC(=O)c1ccccc1`, the TGI worked out at 0.419 µM in test [1]; 0.49 µM in test [2]; 0.425 µM in [3]; 0.525 µM in [4]; 12.4 µM in [5]; 8.24 µM in test [6]. For the same molecule, the TGI in [7] was 0.827 µM; in test [8] it was 4.07 µM; in test [9], 15.5 µM; in [10], more than 42.8 µM.

For the molecule `NC1=C(Br)C(=O)c2ncccc2C1=O`, the TGI in test [1] was 1.89 µM; in test [2] it was 13.7 µM; in test [3], 2.99 µM; in test [4] it was 1.67 µM; in test [5], 0.664 µM; in [6], 3.02 µM. The TGI in test [7] was found to be 1.49 µM; in [8] it was 9.64 µM; in [9], 3.06 µM; in [10], 2.49 µM. In addition, in test [8], the GI50 is 1.65 µM.

In the case of `COc1ccc(C(=O)/C=C/c2c(C(F)(F)F)nc3sccn23)cc1OC`, the GI50 in test [1] is 7.77 µM; in [2], 2.33 µM; in [3], 5.67 µM; in test [4], 6 µM; in test [5] it was 6.87 µM; in test [6] it was 4.43 µM. Besides, the GI50 in [7] is 4.08 µM; in test [8], 5.39 µM; in test [9] it was 5.87 µM; in [10] it was 4.08 µM. Also, the TGI in [1] was more than 100 µM; in test [2], more than 100 µM; in [3], more than 100 µM; in test [4], 43 µM; in test [5], more than 100 µM; in test [6], more than 100 µM. The TGI in test [7] is 92.5 µM; in test [8], more than 100 µM; in test [9], 59.6 µM; in test [10], more than 100 µM.

For `C[C@H]1[C@H](C)CC[C@]2(C(=O)N3CCN(C)CC3)CC[C@]3(C)C(=CC[C@@H]4[C@@]5(C)C/C(=C/c6cccnc6)C(=O)C(C)(C)[C@@H]5CC[C@]43C)[C@H]12`, the GI50 in test [1] was 1.41 µM; in [2] it was 2 µM; in [3], 0.67 µM; in test [4] it was 1.58 µM; in test [5] it was 1.08 µM; in [6], 1.59 µM. Besides, the GI50 in test [7] was 1.53 µM; in test [8] it was 0.541 µM; in [9], 0.446 µM; in test [10], 1.07 µM. The TGI stood at 2.91 µM in test [1]; 5.64 µM in [2]; 2 µM in test [3]; 3.11 µM in test [4]; 2.34 µM in test [5]; 2.99 µM in [6]. The TGI came to 3.08 µM in [7], 1.85 µM in test [8], 1.84 µM in test [9] and 2.48 µM in test [10].
